Source: ChEMBL document CHEMBL1132525, “Indolocarbazole poisons of human topoisomerase I: regioisomeric analogues of ED-110” (Bioorg Med Chem Lett, 1999)

What was measured:
DNA topoisomerase 1 = molecular target: T1, DNA topoisomerase 1 (Homo sapiens, UniProt P11387); assay: Concentration required to inhibit human DNA topoisomerase I (Topo I)
T1 sequence (P11387 whole entry): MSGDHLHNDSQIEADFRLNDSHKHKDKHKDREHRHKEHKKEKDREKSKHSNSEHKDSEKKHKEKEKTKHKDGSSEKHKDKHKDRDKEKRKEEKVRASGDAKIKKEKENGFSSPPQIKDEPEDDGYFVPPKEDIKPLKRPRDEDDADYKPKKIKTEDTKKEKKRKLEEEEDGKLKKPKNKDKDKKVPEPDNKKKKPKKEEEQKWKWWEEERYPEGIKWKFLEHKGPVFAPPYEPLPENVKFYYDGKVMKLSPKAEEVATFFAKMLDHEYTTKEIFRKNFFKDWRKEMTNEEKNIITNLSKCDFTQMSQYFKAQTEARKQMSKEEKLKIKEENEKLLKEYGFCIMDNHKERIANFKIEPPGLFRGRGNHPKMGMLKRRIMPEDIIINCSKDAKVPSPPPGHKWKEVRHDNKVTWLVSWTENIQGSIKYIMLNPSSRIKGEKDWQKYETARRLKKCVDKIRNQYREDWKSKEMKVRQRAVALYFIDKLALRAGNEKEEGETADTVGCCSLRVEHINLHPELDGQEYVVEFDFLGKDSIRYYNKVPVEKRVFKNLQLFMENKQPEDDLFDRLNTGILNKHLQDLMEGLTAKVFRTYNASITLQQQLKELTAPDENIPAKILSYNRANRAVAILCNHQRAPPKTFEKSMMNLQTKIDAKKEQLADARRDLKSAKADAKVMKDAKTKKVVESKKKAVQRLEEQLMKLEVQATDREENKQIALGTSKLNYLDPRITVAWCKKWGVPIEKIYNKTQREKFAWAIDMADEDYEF

DU-145 [1] = assay: In vitro antitumor activity against human solid tumor prostate cell line DU-145; type: functional, cell-based
OVCAR-3 [2] = assay: In vitro antitumor activity against human solid tumor ovarian cell line OVCAR-3; type: functional, cell-based
HT-29 [3] = assay: In vitro antitumor activity against human solid tumor colon cell line HT-29; type: functional, cell-based
OVCAR-3 [4] = assay: In vitro antitumor activity against human solid tumor ovarian cell line OVCAR-3; No active; type: functional, cell-based
DU-145 [5] = assay: In vitro antitumor activity against human solid tumor prostate cell line DU-145; No active; type: functional, cell-based
HT-29 [6] = assay: In vitro antitumor activity against human solid tumor colon cell line HT-29; No active; type: functional, cell-based

SMILES	IC50 (DNA topoisomerase 1) [nM]	IC50 (DU-145 [1]) [nM]	IC50 (OVCAR-3 [2]) [nM]	IC50 (HT-29 [3]) [nM]	IC50 (OVCAR-3 [4])	IC50 (DU-145 [5])	IC50 (HT-29 [6])
O=C1NC(=O)c2c1c1c([nH]c3cccc(O)c31)c1c2c2c(O)cccc2n1C1OC(CO)C(O)C(O)C1O (centres undefined)	36000	950	440	1300			
O=C1NC(=O)C(c2cn(C3OC(CO)C(O)C(O)C3O)c3c(O)cccc23)=C1c1c[nH]c2c(O)cccc12 (centres undefined)					Not Active	Not Active	Not Active

Other lines, results leading:

IC50 (DNA topoisomerase 1) [nM]	IC50 (DU-145 [1]) [nM]	IC50 (OVCAR-3 [2]) [nM]	IC50 (HT-29 [3]) [nM]	IC50 (OVCAR-3 [4])	IC50 (DU-145 [5])	IC50 (HT-29 [6])	SMILES
2300	120	190	9700				O=C1NC(=O)c2c1c1c3ccc(O)cc3[nH]c1c1c2c2ccc(O)cc2n1C1OC(CO)C(O)C(O)C1O (centres undefined)
13000	2300	920	> 10000				O=C1NC(=O)c2c1c1c3cccc(O)c3[nH]c1c1c2c2cccc(O)c2n1C1OC(CO)C(O)C(O)C1O (centres undefined)
1500	67	190	840				O=C1NC(=O)c2c1c1c3cc(O)ccc3[nH]c1c1c2c2cc(O)ccc2n1C1OC(CO)C(O)C(O)C1O (centres undefined)
